{"source": "patent US20210255168A1", "about": "“A METHOD OF PRECISION CANCER THERAPY” (KING FAISAL SPECIALIST HOSPITAL & RESEARCH CENTRE, priority 2018, published 2021)", "type_in_all_cases": "cell-based", "key": {"PD-1L": {"tested_on": "PD-1L", "assay": "PD-1L expression", "settings": "FIG. 18", "description": "FIG. 18: Volasertib reduces PD-1L expression.\n(§1) These include IL-8, solute carrier family 2 member 1 (SLC2A1), uPA, uPAR, CXCR4, MMP13, PDL1, and HuR. The MDA-MB-231 cells were treated with 330 nM volasertib or DMSO for 24 hr, then quantitative RT-qPCR was performed in using FAM-labelled TaqMan probe of the above genes and normalized to GADPH (FIG. 11)."}, "[1]": {"tested_on": "ARE-containing mRNAs (uPA, IL-8, SLC2A1, uPAR, CXCR4, MMP13, PDL1, HuR) in MDA-MB-231 cells", "assay": "RT-qPCR of ARE-containing cancer gene mRNAs", "settings": "MDA-MB-231, 330 nM, 24 hr, vs DMSO", "description": "Examples of the effect of several protein kinase inhibitors that were the outcome of the screen assay on one cancer gene, uPA, and a pro-inflammatory cytokine, IL-8 is given in FIG. 3.\nas §1\nCells were cultured in six-well plates and either treated with DMSO or drugs for 24 h. Total RNA was then extracted using Trizol reagent (TRI Reagent, Sigma-Aldrich, St Louis, Mo.). The cells were lysed directly on the culture dish by adding 1 ml of the TRI Reagent per 10 cm^2 surface area. […] The quantitative RT-QPCR was performed in multiplex in the Chroma 4 DNA Engine cycler (BioRad, Hercules, Calif., USA) using FAM-labelled TaqMan probes (Applied Biosystems, Foster City, Calif., USA) for TTP (ZFP36), HuR (ELAVL1), uPA (PLAU)-CXCR4, MMP-1, MMP-13, IL-8, PLK-1 while a VIC-labelled glyceraldehyde-3-phosphate dehydrogenase (GAPDH) probe was used as the endogenous control. Samples were amplified in triplicate and quantification of relative expression was performed using the estimation of quantitation cycle (Cq) method."}, "[2]": {"tested_on": "TNF-α-ARE luciferase reporter in MDA-MB-231 cells", "assay": "Post-transcriptional ARE luciferase reporter assay (kinase inhibitor library screen)", "settings": "0.5, 2 and 5 μM, ARE and non-ARE reporters"}, "[3]": {"tested_on": "TNF-α-ARE luciferase reporter in MDA-MB-231 cells", "assay": "Post-transcriptional ARE luciferase reporter assay (kinase inhibitor library screen)", "from_the_text": "Reporters were designed to be driven by the ribosomal protein subunit 30 (RPS30) promoter. The promoter was amplified using PCR with primers specific to the flanking region of the RPS30 promoter sequence. The gene structure of RPS30 was obtained from the Ribosomal Protein Database (http://ribosome.med.miyazaki-u.ac.jp). The forward and reverse primers included the restriction sites, EcoR V and SalI sites. Amplified DNA fragments were then resolved in 1.2%-1.5% agarose gel and the amplicon bands were excised, purified and cloned into the promoterless plasmid. TNF-α 3′-UTR and TNF-α ARE were used to study the role of AU-rich elements in the action of PKs inhibitors. The AU-rich sequence that comprised 250 bases from TNF-α 3′UTR (1200-1450 bp, NM_00059) was amplified by PCR using the forward primer 5′-[…]-3′ (SEQ ID NO:1) and the reverse primer 5′-[…]-3′ (SEQ ID NO:2). The TNF-α-ARE sequence was made by annealing two synthetic complementary oligonucleotides of 70 bases that correspond to TNF-α ARE. The control reporter was constructed to have the basic structure of post-transcriptional reporter except 3′UTR which lack the AU-rich element sequence like this of bovine growth hormone. Any ARE reiterations or variations can be used, with minimal sequence is AUUUA, preferably, WW(AUUUA)WW, where W=A or U. They can be also repeated as an overall, e.g., AUUUAUUA, anywhere from 0 to 10 repeats as example.\nSelleckchem Kinase Inhibitor Library that includes a selection of 378 pharmacologically active inhibitors of a number of protein kinases was purchased from Selleckchem. (Houston, Tex., USA). This library is a collection of 378 kinase inhibitors some of which have been approved by the FDA. Each compound is provided as a pre-dissolved 10 mM dimethyl sulfoxide (DMSO) solution as a 96 well format tube (100 μL). The compounds were diluted by OPTI-MEM (Thermo Fisher Scientific, Waltham, Mass., USA) to a final concentration of 5 μM.\nPost-transcriptional and control reporter constructs were transfected to MDA-MB-231 cells separately that were seeded in 96-well microplates at a density of 4×10^4 cells/well and incubated overnight. Using lipofectamine 2000 protocol (Invitrogen, Carlsbad, Calif., USA), the cells were transfected with 10 ng of either RPS30-luciferase-control 3′UTR or RPS30-luciferase-ARE 3′UTR reporter plasmids. After 24 h, the cells were treated with each member of protein kinase inhibitors kit for 24 h. Then, luciferase reaction was performed as prescribed by manufacture's protocol (Nano-Glo Luciferase, Promega, Madison, Wis., USA)/well. After 15 minutes, the reporters' activities were measured through the measurement of the chemiluminescence (FIG. 8) after treatment using a Zenith 3100 (Anthos Labtec, Eugendorf, Austria).\nData are presented as means±standard error of the mean (SEM). Two-sample Student's t-test was used to determine the differences between two data sets. One-way analysis of variance (ANOVA) was used to compare three or more data columns. Two-way analysis of variance was used to analyze two groups of data, each having two data columns. Analysis was performed using GraphPad Prism version 6.00 for Windows, (GraphPad Software, La Jolla Calif., USA). For high throughput screening (HTS) hit selection (protein kinase inhibitors), strictly standardized mean difference (SSMD) test was used. This statistical test measures the size of effect of each member in a group relative to the other members. It is the mean of each member divided by the standard deviation of the difference between two random values from different groups. Based on the value of SSMD, the effect of each member of the library was classified as strong (β≥5), moderate (1≤β<5), and weak (β<1). In this study, only drug with SSMD score more than or equal to 5 or less than or equal to −5, i.e. strong β, where selected in the primary screening. […]"}}, "data": [{"smiles": "CC[C@@H]1C(=O)N(C)c2cnc(Nc3ccc(C(=O)N[C@H]4CC[C@H](N5CCN(CC6CC6)CC5)CC4)cc3OC)nc2N1C(C)C", "note": "[volasertib]", "values": [{"measurement": "PD-1L expression", "setting": "PD-1L", "value": "reduces"}, {"measurement": "expression of all ARE-containing cancer genes (IL-8, SLC2A1, uPA, uPAR, CXCR4, MMP13, PDL1, HuR)", "setting": "[1]", "value": "significantly reduced"}, {"measurement": "ARE-dependent mRNA regulation confirmed in later stages of screening compared to a non-ARE reporter", "setting": "[2]", "value": "confirmed to be involved in ARE-dependent mRNA regulation"}, {"measurement": "reduction of TNF-ARE luciferase reporter activity", "setting": "[3]; primary screening, 5 μM", "value": 40, "unit": "%"}, {"measurement": "reduction in percent reporter activity in the secondary screening compared to the control reporter", "setting": "[3]; secondary screening, ARE vs non-ARE control reporter", "value": "same reduction in percent reporter activity"}]}]}
